This is an account of results in article PMC8839375, “Alpha-Glucosidase Inhibition and Molecular Docking of Isolated Compounds from Traditional Thai Medicinal Plant, Neuropeltis racemosa Wall” (Molecules, 2022).

Read-outs that look alike come from different tables or passages of the source. Marks after values point to notes of the source that are not given here.

The target in assay [1] is T1, alpha-glucosidase (Saccharomyces cerevisiae, UniProt P53341). In words: enzyme kinetic study (Lineweaver-Burk and secondary plots). The class given is biochemical. To be noted: for inhibition type: Lineweaver-Burk plot; for Ki′: inhibition constant when inhibitor bound with enzyme-substrate complex, secondary plot. The method, then:
The double reciprocal Lineweaver–Burk plot was used to determine the mode of inhibition, while the secondary plots conducted the inhibition constants. […] Briefly, the enzyme inhibition procedure was performed as mention above. The 6 concentrations of pNPG (5–0.1 mM), the fixed enzyme concentration (1 unit/mL), and the 3 concentrations of each effective sample were evaluated for the manner of inhibition.

The target of assay [2] is T1, alpha-glucosidase. The settings on record: cited from earlier work; for IC50: ref 13.
Assay [3] has as its system alpha-amylase. Further details: method as in PMID 31185767. The settings on record: ref 15; cited from earlier work.

T1 sequence (P53341 whole entry): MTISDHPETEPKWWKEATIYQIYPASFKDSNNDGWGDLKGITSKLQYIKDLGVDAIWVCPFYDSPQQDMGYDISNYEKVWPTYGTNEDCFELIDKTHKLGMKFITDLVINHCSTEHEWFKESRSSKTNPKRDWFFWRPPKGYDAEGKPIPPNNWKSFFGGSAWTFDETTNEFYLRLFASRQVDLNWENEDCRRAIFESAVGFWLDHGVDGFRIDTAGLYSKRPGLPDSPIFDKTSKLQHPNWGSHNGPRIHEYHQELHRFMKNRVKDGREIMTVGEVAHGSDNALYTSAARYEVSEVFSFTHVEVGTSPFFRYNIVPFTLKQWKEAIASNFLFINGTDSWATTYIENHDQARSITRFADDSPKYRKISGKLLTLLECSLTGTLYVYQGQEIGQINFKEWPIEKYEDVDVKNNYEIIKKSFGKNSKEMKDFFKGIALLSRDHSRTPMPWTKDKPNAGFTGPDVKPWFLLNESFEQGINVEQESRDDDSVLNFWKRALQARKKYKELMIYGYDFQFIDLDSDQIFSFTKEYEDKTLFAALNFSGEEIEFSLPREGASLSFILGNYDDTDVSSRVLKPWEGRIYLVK

With `C[C@H]1O[C@H](O[C@H]2[C@H](O)[C@@H](O)[C@@H](O[C@H]3[C@H](O)[C@@H](O)C(O)O[C@@H]3CO)O[C@@H]2CO)[C@H](O)[C@@H](O)[C@@H]1N[C@H]1C=C(CO)[C@@H](O)[C@H](O)[C@H]1O` (stereo partly drawn) [Acarbose, acarbose, reference compound], in assay [1], the “inhibition type” value is reported as “Competitive”.

For `COc1cc2ccc(=O)oc2cc1O` [Compound 1, scopoletin], the “inhibition type” value in assay [1] is on record as “mixed-type”; in assay [1] (listed as Scopoletin (1)), “Mixed”; in assay [2] (ref 20), “competitive”. Further, the alpha-amylase inhibitory activity entry in assay [3] was “potent inhibitory activity”.

With `COc1cc(C(=O)O)cc(OC)c1O` [Compound 2, syringic acid], in assay [2] (ref 9), the inhibition type entry is “either in a competitive or an uncompetitive manner”.

For orientation: IC50 means the midpoint of a concentration-inhibition curve. `COc1cc(/C=C/C(=O)NCCc2ccc(O)cc2)ccc1O` [Compound 4, N-trans-feruloyltyramine]: the “inhibition type” value is given as “Uncompetitive” in assay [1]; “uncompetitive” in assay [2] (ref 11, 13); “non-competitive” in assay [2] (ref 12). Moreover, the “Ki′” value is on record as 51.81 µM in assay [1] and 51.81 ^c µM in assay [1] (listed as N-trans-feruloyltyramine (4)). Moreover, the IC50 in assay [2] is 3.58 µM.

For `O=C(/C=C/c1ccc(O)cc1)NCCc1ccc(O)cc1` [Compound 5, N-trans-coumaroyltyramine], the “inhibition type” value in assay [1] is reported as “Uncompetitive”; in assay [2] (ref 11, 13), “uncompetitive”; in assay [2] (ref 12), “non-competitive”. The “Ki′” value in assay [1] is 1.99 µM; in assay [1] (listed as N-trans-coumaroyltyramine (5)), 1.99 ^c µM. For the same compound, in assay [2], the IC50 is 0.58 µM.
